Structures can show the parent of a compound that is named as a salt.
How the values were obtained:
Type in all cases: cell-based
[1] = molecular target: T1, Human P2X2 receptor (P2X2R) (Homo sapiens, UniProt Q9UBL9); experiment: Yo-Pro-1 uptake assay, P2X2R transfected HEK-293 cells; settings: HEK293, compound at 5 μM, 5 μM ATP stimulus, read-out: Percentage of activity remains in the presence of the compound at 5 μM, P2X2R (Yo-Pro-1 Assay)
T1 construct: expressed in transfected cells; host or cells: HEK-293
T1 sequence (Q9UBL9 1-471): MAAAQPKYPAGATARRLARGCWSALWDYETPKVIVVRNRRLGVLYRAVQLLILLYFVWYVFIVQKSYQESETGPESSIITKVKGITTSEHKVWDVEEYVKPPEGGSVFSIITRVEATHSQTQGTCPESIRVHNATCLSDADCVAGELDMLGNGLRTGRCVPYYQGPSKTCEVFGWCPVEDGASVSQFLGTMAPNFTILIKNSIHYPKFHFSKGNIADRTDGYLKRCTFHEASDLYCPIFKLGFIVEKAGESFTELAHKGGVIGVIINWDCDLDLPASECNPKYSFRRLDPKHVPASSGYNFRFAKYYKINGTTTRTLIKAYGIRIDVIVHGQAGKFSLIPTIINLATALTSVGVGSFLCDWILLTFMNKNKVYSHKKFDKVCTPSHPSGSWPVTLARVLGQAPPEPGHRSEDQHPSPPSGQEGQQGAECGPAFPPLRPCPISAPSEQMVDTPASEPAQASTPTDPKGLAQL
Text: (§1) Yo-Pro-1 Iodide (Cat. No Y3603 from Fisher Scientific) is a fluorescent DNA-binding dye with a MW of 629 Da. This method is based upon the Yo-Pro-1 entrance to cells through the dilated or “large pore form” of P2X7R and its binding to intracellular DNA whereby it increases its fluorescence intensity (J. Pharmacol. Exp. Ther. 308, 1053-1061). The dye has an absorption spectrum compatible with excitation at 488 nm by argon laser sources and its emission wavelength is in the range of 515-575 nm. This Yo-Pro-1 uptake was measured in HEK-293 cells transiently transfected with P2X7R (J. Biol. Chem. 290, 7930-7942). In Brief, HEK-293 cells were seeded in growth medium at approximately 20,000 cells/well in a 96-well plate on day 1. Transfection was performed on day 2 using Lipofectamine 2000 with the P2X7R DNA plasmid at the concentration of 1.7 μg/ml. The transfection solution was replaced with the growth medium 4 hours later. Fluorescent assays were conducted on day 4. On day 4, the medium was removed, the cells were washed with phosphate buffered saline (PBS) (Cat. No. MT21040CV from Fisher Scientific). Then, 25 μl of PBS were first loaded to each well followed by 25 μl of various test compounds. The third 25 μl of solution contained a mixture of Yo-Pro-1 and stimulus bzATP (2′(3′)-O-(4-Benzoylbenzoyl)adenosine-5′-triphosphate tri(triethylammonium) salt). The final concentration of Yo-Pro-1 was 2.5 μM and of bzATP 30 μM. Fluorescence increases were measured every 30 minutes in a microplate device with excitation at 475 nm and emission wavelength in the range of 500-550 nm. PPADS (Pyridoxalphosphate-6-azophenyl-2′,4′-disulfonic acid tetrasodium) was used as the positive control. The wells with no test compounds added nor bzATP and only containing PBS and Yo-Pro-1 were served as the negative control (N Contl). The positive control (P Contl) wells were the same as N Contl but contained the stimulus, bzATP in this case.
(§2) Data used for analysis were from microplate readings 1 hour after bzATP stimulation. The result of each well was first normalized by its corresponding base microplate reading. The base microplate reading was the first reading right after all components were added. Then, the negative control signal was subtracted from. In the negative control, the test compound and the stimulus were replaced by PBS. An average of six highest values of the plate (AVG) were considered as 100% and the value of each well was divided by AVG and presented as the relative values in percentages.
Human P2X2 receptor (P2X2R) construct (J. Biol. Chem. 290, 7930-7942) was transiently transfected to HEK-293 cells and the Yo-Pro-1 assay was performed as described above. When 5 μM ATP was used as the stimulus, the elevation of receptor mediated activity can be seen in 10 minutes.

[2] = molecular target: T2, P2X7R (Homo sapiens, UniProt Q99572); experiment: Yo-Pro-1 uptake assay (Yo-Pro-1 Assay) in HEK-293 cells transiently transfected with P2X7R; settings: for remaining activity at 5 µM: HEK293, compound at 5 μM, 30 μM bzATP stimulus, reading 1 hour after stimulation, transfected HEK-293 cells, read-out: Percentage of activity remains in the presence of the compound at 5 μM, P2X7R (Yo-Pro-1 Assay); for IC50: HEK-293 cells transiently transfected with P2X7R, 30 μM bzATP as stimulus, readings 1 hour after stimulation, estimated from dose-response curves
T2 construct: expressed in transfected cells; host or cells: HEK-293
T2 sequence (Q99572 1-595): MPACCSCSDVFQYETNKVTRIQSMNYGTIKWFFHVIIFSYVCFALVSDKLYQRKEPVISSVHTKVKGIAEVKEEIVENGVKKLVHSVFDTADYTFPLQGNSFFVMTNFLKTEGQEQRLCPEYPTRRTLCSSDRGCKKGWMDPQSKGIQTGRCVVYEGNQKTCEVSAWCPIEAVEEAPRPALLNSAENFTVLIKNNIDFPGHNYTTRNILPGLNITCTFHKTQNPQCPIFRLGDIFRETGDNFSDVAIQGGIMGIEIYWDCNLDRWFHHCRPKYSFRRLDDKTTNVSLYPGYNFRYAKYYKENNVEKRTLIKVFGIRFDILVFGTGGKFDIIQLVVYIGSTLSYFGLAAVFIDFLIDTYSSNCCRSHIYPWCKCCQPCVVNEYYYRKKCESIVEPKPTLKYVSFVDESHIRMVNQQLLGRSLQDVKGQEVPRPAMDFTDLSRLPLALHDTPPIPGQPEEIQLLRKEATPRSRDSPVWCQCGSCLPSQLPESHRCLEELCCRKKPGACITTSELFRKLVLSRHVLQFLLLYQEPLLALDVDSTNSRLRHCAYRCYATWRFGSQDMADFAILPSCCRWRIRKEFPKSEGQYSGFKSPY
Text: as §1, §2
For comparison of the antagonistic effectiveness of the compounds of this invention among P2X receptors, assays were conducted at 5 μM. Among 55 compounds tested, 29 can reduce the P2X7R activity to […] of the normal activity (Table 2).

[3] = molecular target: T3, P2X2R (Homo sapiens, UniProt Q9UBL9); experiment: Receptor-mediated calcium entrance assay (Calcium Assay), P2X2R; settings: compound at 5 μM, read-out: Percentage of activity remains in the presence of the compound at 5 μM, P2X2R (Calcium Assay)
T3 construct: expressed in transfected cells; host or cells: HEK-293
T3 sequence (Q9UBL9 1-471): T1 sequence (Q9UBL9 1-471)

SMILES | remaining activity at 5 µM [1] [%] | remaining activity at 5 µM [2] [%] | IC50 [2] [µM] | remaining activity at 5 µM [3] [%]
CS(=O)(=O)c1ccc(N2CCCC(NC(=O)CCc3ccccc3)C2)cc1 (stereo not shown) [#1] | 44 | 20 | 3.9 | 61.3
COc1ccc(S(=O)(=O)N2CCCC(NC(=O)CCc3ccccc3)C2)cc1 (stereo not shown) [#2] | 54.6 | 15.8 | 2.8 | 85.7
O=C(CCc1ccccc1)NC1CCCN(S(=O)(=O)c2ccc(OCc3ccccc3)cc2)C1 (stereo not shown) [#4] | 64.9 | 38.4 | 8.2 | 83.7
CC(C)COc1ccc(S(=O)(=O)N2CCCC(NC(=O)CCc3ccccc3)C2)cc1 (stereo not shown) [#6] | 54.3 | 10.7 | 2.7 | 55.2
O=C(CCc1ccccc1)NC1CCCN(S(=O)(=O)Cc2ccc(Br)cc2)C1 (stereo not shown) [#8] | 63.8 | -14.5 | 2.1 | 94.6
O=C(CCc1ccccc1)NC1CCCN(S(=O)(=O)c2ccc(-n3cc(Br)cn3)cc2)C1 (stereo not shown) [#9] | 76.9 | 10.2 | 16 | 61.3
O=S(=O)(c1ccccc1)C1CN(S(=O)(=O)c2ccc(N3CCCCC3)cc2)C1 [#10] | 38.2 | 70.1 | 5.9 | 69.3
O=S(=O)(c1ccccc1)C1CN(S(=O)(=O)c2ccc(N3CCOCC3)cc2)C1 [#11] | 44 | 80.9 | 9.9 | 52
O=C(CCc1ccccc1)NC1CCCN(S(=O)(=O)c2ccc(N3CCOCC3)cc2)C1 (stereo not shown) [#12] | 41.8 | 44.3 | 6.7 | 64.8
O=C(CCc1ccccc1)NC1CCCN(S(=O)(=O)c2ccc(N3CCCC3)cc2)C1 (stereo not shown) [#13] | 48.9 | 0.8 | 1.6 | 67.4
O=C1CCC(N2Cc3c(NC(=O)CCc4ccccc4)cccc3C2=O)C(=O)N1 (stereo not shown) [#16] | 83.8 | 26 | 3.6 | 77
COCCOc1ccc(S(=O)(=O)N2CCCC(NC(=O)CCc3ccccc3)C2)cc1 (stereo not shown) [#17] | 91.6 | 53.4 | 16.1 | 64.9
CN1CCN(c2ccc(S(=O)(=O)N3CCCC(NC(=O)CCc4ccccc4)C3)cc2)CC1 (stereo not shown) [#18] | 52.7 | 41.5 | 31.2 | 73.1
O=C(NCCc1ccccc1)C1CCN(S(=O)(=O)c2ccc(N3CCCC3)cc2)CC1 [#21] | 50.8 | 36.2 | 0.9 | 94.3
CC(C)(C)OC(=O)N1CCN(c2ccc(S(=O)(=O)N3CCC(C(=O)NCCc4ccccc4)CC3)cc2)CC1 [#22] | 72 | 43 | 12.6 | 85.8
O=C(NCCc1ccccc1)C1CCN(S(=O)(=O)c2ccc(N3CCOCC3)cc2)CC1 [#23] | 77.1 | 35.8 | 26.6 | 57.7
CCCCNc1ccc(S(=O)(=O)N2CCC(C(=O)O)CC2)cc1 [#27] | 55.4 | 59 | 9.3 | 67.2
NC(=O)c1cc(Br)cc(N2CCOCC2)c1 [#28] | 77.3 | 75.2 | 29 | 50.7
O=C(CCc1ccccc1)N1CCN(S(=O)(=O)c2ccc(F)cc2)CC1 [#30] | 74.9 | 52.2 | 1490 | 67.5

Now from value to molecule:

remaining activity at 5 µM [1] [%] | remaining activity at 5 µM [2] [%] | IC50 [2] [µM] | remaining activity at 5 µM [3] [%] | SMILES
57 | 13.5 | 3.2 | 98 | O=C(CCc1ccccc1)NC1CCCN(S(=O)(=O)c2ccc(F)cc2)C1 (stereo not shown) [#3]
55.5 | -7.3 | 0.2 | 87.8 | O=C(CCc1ccccc1)NC1CCCN(S(=O)(=O)c2ccc(N3CCCCC3)cc2)C1 (stereo not shown) [#5]
77.6 | 14.1 | 6 | 78.8 | CC(C)S(=O)(=O)c1ccc(N2CCCC(NC(=O)CCc3ccccc3)C2)cc1 (stereo not shown) [#7]
54.3 | -6.1 | 1.4 | 72.7 | CN(C)c1ccc(S(=O)(=O)N2CCCC(NC(=O)CCc3ccccc3)C2)cc1 (stereo not shown) [#14]
85 | -12.2 | 1 | 80.4 | CCCCNc1ccc(S(=O)(=O)N2CCCC(NC(=O)CCc3ccccc3)C2)cc1 (stereo not shown) [#15]
61.5 | 7 | 1 | 68.1 | O=C(NCCc1ccccc1)C1CCN(S(=O)(=O)c2ccc(N3CCCCC3)cc2)CC1 [#20]
70.9 | 32.6 | 10.2 | 73.5 | O=C(NCCc1ccccc1)C1CCCN(S(=O)(=O)c2ccc(N3CCOCC3)cc2)C1 (stereo not shown) [#24]
79.3 | 36.8 | 5.1 | 70 | O=C(NCCc1ccccc1)C1CCCN(S(=O)(=O)c2ccc(N3CCCC3)cc2)C1 (stereo not shown) [#25]
89.4 | 88.1 | 10.1 | 83.3 | O=C(CCc1ccccc1)N1CCNCC1 [#29, hydrochloride]
